Test results published in patent publication US20140357512A1, “HISTONE DEACETYLASE (HDAC) BIOMARKERS IN MULTIPLE MYELOMA” (priority 2013, published 2014).

Test system: human myeloma cell line MM.1S
Assay: SILAC acetylated-lysine peptide profiling, HDAC inhibitor vs DMSO (light/heavy ratio)
Assay type: cell-based
Text: An embodiment of the invention comprises utilizing the SILAC method in order to quantitate changes in protein expression between two or more populations of cells. The SILAC method is a technique based on mass spectrometry that detects differences in protein abundance among samples using non-radioactive isotopic labeling. The SILAC method is known in the art, and described in detail in Ong et al., “Stable Isotope Labeling by Amino Acids in Cell Culture, SILAC, as a Simple and Accurate Approach to Expression Proteomics”, Molecular & Cellular Proteomics, vol. 1, pp. 376-386 (2002), which is incorporated herein by reference in its entirety.
Briefly, the SILAC method involves growing two populations of cells in cell culture. The first population of cells is grown in growth media containing normal amino acids (“normal media”). The second population of cells is grown in media lacking a standard essential amino acid (such as lysine), but is then supplemented with a non-radioactive, isotopically labeled form of that essential amino acid (such as lysine labeled with ^13C atoms, rather than normal ^12C atoms), which is called “heavy media”. When the two populations of cells are each growing in the medium, they incorporate the amino acids into all of their proteins. The growth of cells maintained in the heavy media is no different from that in normal media. All peptides containing the heavy amino acids are heavier than their normal counterparts. The cells from each of the two populations of cells are lysed. The lysates from each of the two cell populations are then combined. The combined cell lysates are then analyzed by mass spectrometry. Pairs of chemically identical peptides of different stable isotope composition can be differentiated in a mass spectrometer due to their difference in mass. The ratio of peak intensities in the mass spectrum for such peptide pairs reflects the abundance ratio for the two proteins.
This example describes SILAC studies that were performed to compare the effects of three different HDAC inhibitors (Compound A, Compound B, and tubastatin A) to a control on a human multiple myeloma cell line. The HDAC inhibitors were also compared amongst themselves to determine differences in their effects.
A human myeloma cell line MM.1S was grown using either ^12C (light) or ^13C (heavy) lysine containing culture medium. The “heavy” cells were treated with DMSO as the control, and the “light” cells were treated with a single HDAC inhibitor at 37° C. for 6 hours. The heavy and light cells were lysed, and the lysates were mixed in 1:1 ratio and digested with the protease trypsin. The acetylated lysine containing peptides (due to the action of the HDAC inhibitor) in the digested peptide pool were captured by a non-specific anti-acetylated lysine antibody cocktail (the antibodies identify both light and heavy acetylated peptides), and subjected to mass spectrometry analysis in order to identify thousands of individual peptides.
Thousands of peptides were identified in pairs (^12C and ^13C) due to their known mass differences. The amino acid sequence and quantitative ratio (Light/Heavy) of a given peptide in two differentially treated cell lysates were then determined and annotated with their possible protein (gene) sources.
As stated above, three HDAC inhibitors (Compound A, Compound B, and Tubastatin A) were used. Thus, the SILAC method was performed three times, with a different HDAC inhibitor compared to a control each time. Accordingly, there are three pairs of quantitative data in the table below, i.e., Compound A:DMSO, Compound B:DMSO, and Tubastatin A:DMSO. A cut-off of 1.30 fold of change (increase or decrease) was then used to determine “changed” or “+” in the table, and any peptides with a fold of change less than 1.3 fold were determined to be “unchanged” or “0” in the table. Those peptides that were not identified were marked as “NA” in the table. […]

Compound: O=C(NO)c1cnc(NC2(c3cccc(F)c3)CCCCC2)nc1 [Compound B, 2-((1-(3-fluorophenyl)cyclohexyl)amino)-N-hydroxypyrimidine-5-carboxamide]
- light to heavy ratio (L/H ratio) of acetylated peptide SEVDMLK(ac)IR (SEQ ID NO: 295) (Putative annexin A2-like protein [302], ANXA2P2, drug:DMSO): 0.00 log 2
- light to heavy ratio (L/H ratio) of acetylated peptide K(ac)[…] (SEQ ID NO: 358) (Putative annexin A2-like protein [310], ANXA2P2, drug:DMSO): 0.66 log 2
- L/H ratio of acetylated peptide (QLNDVK(ac)[…] (SEQ ID NO: 386), Scavenger mRNA-decapping enzyme DcpS [128], DCPS): 0.97 log 2
- L/H ratio of acetylated peptide EIDSVK(ac)[…] (SEQ ID NO: 73) (RAC2 [153], log 2 scale, drug vs DMSO): 0.00
- light to heavy ratio (L/H ratio) of acetylated peptide, log 2 scale (RPAVK(ac)QFHDSK (SEQ ID NO: 203), 60S ribosomal protein L18a [143], RPL18A): 0.00
- L/H ratio of acetylated peptide FIDTTSK(ac)FGHGR (SEQ ID NO: 83) (RPL3L [373], log 2 scale, drug vs DMSO): 0.00
- L/H ratio of acetylated peptide AASLK(ac)SNYNLPMHK (SEQ ID NO: 84) (RPL4 [274], log 2 scale, drug vs DMSO): 0.00
- L/H ratio of acetylated peptide NFLGEK(ac)YIR (SEQ ID NO: 86) (RPL9 [121], log 2 scale, drug vs DMSO): 0.00
- L/H ratio of acetylated peptide […](ac)SR (SEQ ID NO: 79) (RPL18A [41], log 2 scale, drug vs DMSO): 0.00
- L/H ratio of acetylated peptide YLK(ac)YLTK (SEQ ID NO: 81) (RPL22 [84], log 2 scale, drug vs DMSO): 0.00
- L/H ratio of acetylated peptide INFDK(ac)YHPGYFGK (SEQ ID NO: 82) (RPL27A [47], log 2 scale, drug vs DMSO): 0.00
- L/H ratio of acetylated peptide LK(ac)[…] (SEQ ID NO: 89) (RPS4X [53], log 2 scale, drug vs DMSO): 0.00
- L/H ratio of acetylated peptide SFQK(ac)IQVR (SEQ ID NO: 90) (RPS7 [74], log 2 scale, drug vs DMSO): 0.00
- L/H ratio of acetylated peptide […](ac)GK (SEQ ID NO: 87) (RPS23 [135], log 2 scale, drug vs DMSO): 0.00
- L/H ratio of acetylated peptide LAVLK(ac)YYK (SEQ ID NO: 88) (RPS27A [104], log 2 scale, drug vs DMSO): 0.00
- light to heavy ratio (L/H ratio) of acetylated peptide […](ac)YK (SEQ ID NO: 360) (Rho GDP-dissociation inhibitor 2 [47], ARHGDIB, drug:DMSO): 0.60 log 2
- light to heavy ratio (L/H ratio) of acetylated peptide […](ac)R (SEQ ID NO: 334) (S1 IF1 type family protein [56], EIF1AXP1, drug:DMSO): −0.40 log 2
- L/H ratio of acetylated peptide LAELK(ac)QECLAR (SEQ ID NO: 94) (SARNP 17], log 2 scale, drug vs DMSO): 0.00
- L/H ratio of acetylated peptide (ac)ATETVELHK(ac)LK (SEQ ID NO: 93) (SARNP [10], log 2 scale, drug vs DMSO): 0.00
- L/H ratio of acetylated peptide (SELEFK(ac)FNR (SEQ ID NO: 422), Sialic acid synthase [61], NANS): 0.53 log 2
- L/H ratio of acetylated peptide EHTALLK(ac)IEGVYAR (SEQ ID NO: 630, 60S ribosomal protein L35a [29], RPL35A): 0.00 log 2
- L/H ratio of acetylated peptide NDEELNK(ac)LLGR (SEQ ID NO: 634, Histone H2A type 1-B/E [96], HIST1H2AE, HIST1H2AB, HIST1H2AD, HIST1H2AG, HIST1H2AK, HIST1H2AL, HIST1H2AM, HIST1H2AJ, HIST1H2AI): 0.00 log 2
- L/H ratio of acetylated peptide TFK(ac)[…] (SEQ ID NO: 636, 60S ribosomal protein L3 [103], SNORD43, RPL3): 0.00 log 2
- L/H ratio of acetylated peptide YK(ac)[…] (SEQ ID NO: 637, Protein disulfide-isomerase [328], P4HB): 0.00 log 2
- L/H ratio of acetylated peptide NAEK(ac)YAEEDRR (SEQ ID NO: 638, Stress-70 protein mitochondrial [567], HSPA9): 0.00 log 2
- L/H ratio of acetylated peptide […](ac)DR (SEQ ID NO: 639, pyruvate dehydrogenase E1 component subunit alpha somatic form mitochondrial isoform 2 precursor [359], PDHA1): 0.00 log 2
- L/H ratio of acetylated peptide VEYFLK(ac)WK (SEQ ID NO: 645, Chromobox protein homolog 3 [50], CBX3): 0.00 log 2
- L/H ratio of acetylated peptide HYK(ac)TDFDK (SEQ ID NO: 646, Isocitrate dehydrogenase [NADP] mitochondrial [275], IDH2): 0.00 log 2
- L/H ratio of acetylated peptide EGYAWAEDK(ac)EHCEEYGR (SEQ ID NO: 647, tRNA-splicing ligase RtcB homolog [190], C22orf28): 0.00 log 2
- L/H ratio of acetylated peptide […](ac)QNK (SEQ ID NO: 650, Dihydrolipoyl dehydrogenase mitochondrial [143], DLD): 0.00 log 2
- L/H ratio of acetylated peptide FYVK(ac)DHR (SEQ ID NO: 651, CDGSH iron-sulfur domain-containing protein 1 [37], CISD1): 0.00 log 2
- L/H ratio of acetylated peptide HIVK(ac)EFK (SEQ ID NO: 653, Stress-70 protein mitochondrial [288], HSPA9): 0.00 log 2
- L/H ratio of acetylated peptide MYKEEGLK(ac)AFYK (SEQ ID NO: 654, Isoform A of Phosphate carrier protein mitochondrial [214], SLC25A3): 0.00 log 2
- L/H ratio of acetylated peptide […](ac)EFR (SEQ ID NO: 657, Isoform 1 of Clathrin heavy chain 1 [1264], CLTC): 0.00 log 2
- L/H ratio of acetylated peptide YELTGK(ac)FER (SEQ ID NO: 659, Annexin A6 [81], ANXA6): 0.00 log 2
- L/H ratio of acetylated peptide LAMVK(ac)AEPDVK (SEQ ID NO: 661, NADH dehydrogenase [ubiquinone] 1 alpha subcomplex subunit 5 [60], NDUFA5): 0.00 log 2
- L/H ratio of acetylated peptide NEK(ac)LFYR (SEQ ID NO: 662, NADP-dependent malic enzyme mitochondrial [119], ME3): 0.00 log 2
- L/H ratio of acetylated peptide DLSLDDFK(ac)GK (SEQ ID NO: 664, Thioredoxin-dependent peroxide reductase mitochondrial [91], PRDX3): 0.00 log 2
- L/H ratio of acetylated peptide LTSDDVK(ac)EQIYK (SEQ ID NO: 669, 40S ribosomal protein S13 [34], RPS13): 0.00 log 2
- L/H ratio of acetylated peptide SCNCLLLK(ac)[…] (SEQ ID NO: 670, Isoform alpha-enolase of Alpha-enolase [343], ENO1): 0.00 log 2
- L/H ratio of acetylated peptide […](ac)FLIK (SEQ ID NO: 671, Methyltransferase-like protein 7A [105], METTL7A): 0.00 log 2
- L/H ratio of acetylated peptide […](ac)QLK (SEQ ID NO: 672, Annexin A6 [442], ANXA6): 0.00 log 2
- L/H ratio of acetylated peptide LENDK(ac)SFR (SEQ ID NO: 678, Isoform 1 of Enoyl-CoA delta isomerase 1 mitochondrial [89], ECI1): 0.00 log 2
- L/H ratio of acetylated peptide LVAMK(ac)FLR (SEQ ID NO: 679, Isoform 1 of Nucleoside diphosphate kinase B [39], NME1, NME2, NME1-NME2): 0.00 log 2
- L/H ratio of acetylated peptide SGK(ac)YDLDFK (SEQ ID NO: 688, Isoform alpha-enolase of Alpha-enolase [256], ENO1): 0.00 log 2
- L/H ratio of acetylated peptide LYGDLK(ac)HLK (SEQ ID NO: 689, cDNA FLJ61478 highly similar to Succinate dehydrogenase (ubiquinone) flavoprotein subunit mitochondrial [547], SDHA): 0.00 log 2
- L/H ratio of acetylated peptide TISAK(ac)YAEER (SEQ ID NO: 692, Isoform 1 of Myosin-9 [1459], MYH9): 0.00 log 2
- L/H ratio of acetylated peptide (ac)ASNK(ac)TTLQK (SEQ ID NO: 693, Chromobox protein homolog 3 [5], CBX3): 0.00 log 2
- L/H ratio of acetylated peptide KAVTK(ac)VQK (SEQ ID NO: 699, Histone H2B type 2-F [21], HIST2H2BF): 0.00 log 2
- L/H ratio of acetylated peptide ILQK(ac)QGFK (SEQ ID NO: 700, Dihydrolipoyl dehydrogenase mitochondrial [267], DLD): 0.00 log 2
- L/H ratio of acetylated peptide NK(ac)FGAPQK (SEQ ID NO: 701, Trifunctional enzyme subunit alpha mitochondrial [353], HADHA): 0.00 log 2
- L/H ratio of acetylated peptide VTAVHK(ac)ANIMK (SEQ ID NO: 702, Isocitrate dehydrogenase [NAD] subunit gamma mitochondrial [221], IDH3G): 0.00 log 2
- L/H ratio of acetylated peptide ACPEK(ac)HFAFK (SEQ ID NO: 703, Protein FAM3C [67], FAM3C): 0.00 log 2
- L/H ratio of acetylated peptide QLAQK(ac)YNCDK (SEQ ID NO: 705, Ubiquitin-60S ribosomal protein L40 [88], UBA52): 0.00 log 2
- L/H ratio of acetylated peptide […](ac)EDVK (SEQ ID NO: 706, Isoform 1 of ATP synthase subunit d mitochondrial [95], ATP5H): 0.00 log 2
- L/H ratio of acetylated peptide ADK(ac)LAEEHSS (SEQ ID NO: 708, ATP synthase subunit beta mitochondrial [522], ATP5B): 0.00 log 2
- L/H ratio of acetylated peptide DFGSFDK(ac)FK (SEQ ID NO: 709, Superoxide dismutase [Mn] mitochondrial [130], SOD2): 0.00 log 2
- L/H ratio of acetylated peptide CSK(ac)LPSSTK(ac)SGWPR (SEQ ID NO: 711, cDNA FLJ75110 highly similar to Homo sapiens PHD finger protein 15 (PHF15) mRNA 3[2:38], PHF15): 0.00 log 2
- L/H ratio of acetylated peptide KAINK(ac)AQK (SEQ ID NO: 712, Histone H2B type 1-M [21], HIST1H2BM): 0.00 log 2
- L/H ratio of acetylated peptide TDLEK(ac)[…] (SEQ ID NO: 714, Putative annexin A2-like protein [157], ANXA2P2): 0.00 log 2
- L/H ratio of acetylated peptide KGIEK(ac)NLGIGK (SEQ ID NO: 718, Malate dehydrogenase mitochondrial [301], MDH2): 0.00 log 2
- L/H ratio of acetylated peptide QLYNIYAK(ac)HTK (SEQ ID NO: 720, Putative ATP-dependent Clp protease proteolytic subunit mitochondrial [211], CLPP): 0.00 log 2
- L/H ratio of acetylated peptide GKGDK(ac)AQIEK (SEQ ID NO: 721, 60 kDa heat shock protein mitochondrial [364], HSPD1): 0.00 log 2
- L/H ratio of acetylated peptide K(ac)FLVHNVK (SEQ ID NO: 722, 60S ribosomal protein L32 [76], RPL32): 0.00 log 2
